Experimental data published in patent EP2307018B1, “OXYMATRINE COMPOSITIONS AND USE THEREOF FOR TREATING AND PREVENTING CHRONIC INFECTIOUS DISEASES” (Chia, John K.S., priority 2008, dated 2010).

Experiments:
[1] = test system: hepatitis B virus; details: cited from earlier work
[2] = test system: Mycobacterium avium complex (MAC); test: case report Example 8, Mycobacterium avium complex infection; type: in vivo, human
Experimental: A person with known history of Mycobacterium avium complex (MAC) infection of the lung and bronchiectasis for several years was treated with clarithromycin, ethambutol, ciprofloxacin and rifabutin for about five years. As a result of persistent positive sputum culture for MAC, the patient was also treated with gamma interferon (an immune booster) without significant benefit. Intravenous amikacin was added following right middle and left lingula lobectomy. In spite of the above therapy, sputum and repeat bronchial washing obtained by bronchoscopy grew MAC within three weeks. A computed tomography scan of the chest remained unchanged except for the post-surgical changes.
Sputum became clear in color then resolved. About two months after the start of oxymatrine, the patient had fevers, flu-like symptoms, increase in non-productive cough, bilateral uveitis and elevation of liver enzymes to 3.5 times normal values. The symptoms lasted two weeks and resolved after tapering dose of oxymatrine to 200 mg bid. Liver enzymes returned to normal within six weeks. […] The anti-MAC medications were discontinued after […] of oxymatrine therapy. The dose of oxymatrine was tapered to 100 mg tid at four and a half months of therapy and then stopped after six months of total therapy. The patient felt well at the six month follow-up.

[3] = test system: enterovirus; test: case report Example 10, acute enterovirus infection of the gastrointestinal tract; type: in vivo, human
Description: A person developed subacute onset of severe fatigue, nausea, anorexia and progressive weight loss of 20 pounds following an upper respiratory infection.

[4] = test system: Coxsackie B virus (CBV) 3, CVB4 and echovirus 9; test: case report Example 2, treatment of chronic fatigue; type: in vivo, human
Experimental: A person with episodes of diarrhea while traveling to Tonga developed severe respiratory infection soon thereafter. The symptoms consisted of fevers to 105°F, night sweats, diffuse myalgia, tachycardia, fatigue, sinus congestion and cough, and unresponsiveness to antibiotics. The patient developed profound fatigue thereafter and went on total disability three months after the onset of symptoms. Initial Coxsackie B virus (CBV) 3, CVB4 and echovirus 9 antibody titers were 1:320, 1:160, 1:80 (normal <1:10), respectively.
The patient could not work for the next 18 months. They were started on oxymatrine at 300 mg twice a day (bid). After taking oxymatrine for two months, they were able to take short walks, but still exhausted after one hour of activity requiring five hour naps. At the end of three months of therapy, they started having fevers of 104-105°F for several days with marked decrease in diffuse myalgia. […] CVB3, CVB4 and echovirus antibody three months after therapy were 1:160, 1:160 and 1:20, respectively.

[5] = test system: interleukin-12P35+P40/interleukin-10; test: cytokine gene expression in CFS patients at start of and during oxymatrine therapy (FIG. 5); type: in vivo, human
Description: • FIG. 1 graphically illustrates the comparison of Th1/Th2 (interleukin-12p35+P40/interleukin-4 + interleukin-10, RQ is the gene expression ratio) gene expression of patients who are functional (able to work) versus totally disability (not able to work). The difference therein is statistically significant (p<0.01, pair t test). • FIG. 2 illustrates the infected human stomach (biopsy of case 5 stained with 5D8/1) before treatment with oxymatrine. • FIG. 3 illustrates the stomach biopsy of case 5 stained with 5 D8/1 after taking oxymatrine for 6 months. • FIG. 4 graphically illustrates a cytokine gene expression study before and after oxymatrine (RQ is the gene expression ratio). • FIG. 5 graphically illustrates cytokine gene expression of interleukin-12P35+P40/interleukin-10 in tissue from CFS patients at the start of (pre-oxymatrine) and during oxymatrine therapy (n=17).

[6] = test system: enterovirus; test: case report Example 4, treatment of chronic fatigue; type: in vivo, human
Experimental: A person with a known history of frequent respiratory infections and vasovagal syncope developed respiratory infection, which was followed by bedridden fatigue. Enteroviral protein was detected in the stomach biopsy consistent with chronic enterovirus infection. […] After vigorous exercise, they would still have relapses of bedridden fatigue for one day but continued to work 10-12 hours per day for the next 12 months, walking two miles per day. Laboratory tests were normal while on therapy.

[7] = compared to placebo-treated animals

In the case of O=C1CCC[C@@H]2[C@H]3CCC[N+]4([O-])CCC[C@@H](CN12)[C@@H]34 (stereo partly drawn) [oxymatrine], the “level of gamma interferon” value [1, 7] is listed as “increased more than three-fold”, the “level of interleukin-2” value [1, 7] is listed as “increased more than three-fold” and the “level of interleukin-4” value [1, 7] is listed as “decreased more than three-fold”. For the same compound, the “level of interleukin-10” value [1, 7] was “decreased more than three-fold”, the “effect on the hepatitis B viremia, mRNA and protein levels” value ([1]; mouse, in vivo) was “No effect” and the “elevation of liver enzymes” value ([2]; about two months after start, returned to normal within six weeks after tapering to 200 mg bid) was 3.5 times normal values. For the same compound, the “repeat bronchial washing culture” value ([2]; bronchoscopy six months after onset of oxymatrine therapy, with anti-MAC medications) was “no growth of MAC”, the “repeat computed tomography scans of the chest” value ([2]; in vivo) was “healing and calcifications of the lesions” and the tolerability ([2]; in vivo) was “tolerated well”. For the same compound, the night sweats ([2]; within two months) was “decreased from twice a week to once every two weeks”, the symptoms ([3]; 200 mg bid) was “promptly responded” and the activity ([3]; after taking oxymatrine for ten days) was “resumed their normal activity”. The clinical outcome ([4]; 300 mg bid for three months, three months after finishing the medication, previously on total disability) was “went back to full-time work”, the fevers ([4]; at the end of three months of therapy, for several days, with marked decrease in diffuse myalgia) was 104-105 °F and the “laboratory studies including CBC and complete chemistry panel” value ([4]; during therapy, calcium resolved after stopping hydrochlorothiazide) was “normal except mildly elevated calcium levels”. The relapse after therapy ([4]; in vivo) was “had not relapsed for at least one year after therapy”, the “increase of the interleukin-12P35+P40/interleukin-10 ratio (gene expression)” value ([5]; seven responders of n=17, pre-oxymatrine vs during therapy) was “greater than 2 fold” and the “interleukin-12P35+P40/interleukin-10 ratio (gene expression)” value ([5]; ten non-responders of n=17, pre-oxymatrine vs during therapy) was “remained the same or decreased”. For the same compound, the clinical outcome ([6]; after taking the medication for six weeks, previously bedridden fatigue) was “returned to full-time work”, the tolerability ([6]; in vivo) was “tolerated well without any adverse reactions” and the laboratory tests ([6]; while on therapy) was “normal”.
